Data from ChEMBL document CHEMBL1145121, “Docking studies on alphavbeta3 integrin ligands: pharmacophore refinement and implications for drug design” (J Med Chem, 2003).

Target: Integrin alpha-V/beta-3 (Homo sapiens, UniProt P05106+P06756)
Experiment: Inhibition of binding to alphaV-beta3 integrin
Type: protein-complex assay

Chain of Integrin alpha-V/beta-3 (P05106 27-788 limits assumed): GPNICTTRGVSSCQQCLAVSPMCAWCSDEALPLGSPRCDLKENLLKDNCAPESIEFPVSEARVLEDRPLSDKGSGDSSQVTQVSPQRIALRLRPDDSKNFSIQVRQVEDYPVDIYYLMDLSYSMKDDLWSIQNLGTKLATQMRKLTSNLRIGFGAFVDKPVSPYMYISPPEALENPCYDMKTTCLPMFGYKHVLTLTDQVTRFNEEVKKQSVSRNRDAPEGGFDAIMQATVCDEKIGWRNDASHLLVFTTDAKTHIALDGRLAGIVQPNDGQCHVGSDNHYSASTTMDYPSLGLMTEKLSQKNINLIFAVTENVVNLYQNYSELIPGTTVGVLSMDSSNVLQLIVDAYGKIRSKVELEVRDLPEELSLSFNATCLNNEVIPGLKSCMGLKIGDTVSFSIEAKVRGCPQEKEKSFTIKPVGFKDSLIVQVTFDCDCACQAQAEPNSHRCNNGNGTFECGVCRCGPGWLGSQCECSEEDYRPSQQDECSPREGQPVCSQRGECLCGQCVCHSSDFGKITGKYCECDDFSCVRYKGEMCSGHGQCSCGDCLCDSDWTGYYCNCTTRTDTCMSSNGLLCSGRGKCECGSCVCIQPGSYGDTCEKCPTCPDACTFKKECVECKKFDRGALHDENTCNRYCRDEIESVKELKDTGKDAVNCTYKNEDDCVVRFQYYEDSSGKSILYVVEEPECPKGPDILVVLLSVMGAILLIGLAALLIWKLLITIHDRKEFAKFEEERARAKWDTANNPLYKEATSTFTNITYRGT
Chain of Integrin alpha-V/beta-3 (P06756 31-889 limits assumed): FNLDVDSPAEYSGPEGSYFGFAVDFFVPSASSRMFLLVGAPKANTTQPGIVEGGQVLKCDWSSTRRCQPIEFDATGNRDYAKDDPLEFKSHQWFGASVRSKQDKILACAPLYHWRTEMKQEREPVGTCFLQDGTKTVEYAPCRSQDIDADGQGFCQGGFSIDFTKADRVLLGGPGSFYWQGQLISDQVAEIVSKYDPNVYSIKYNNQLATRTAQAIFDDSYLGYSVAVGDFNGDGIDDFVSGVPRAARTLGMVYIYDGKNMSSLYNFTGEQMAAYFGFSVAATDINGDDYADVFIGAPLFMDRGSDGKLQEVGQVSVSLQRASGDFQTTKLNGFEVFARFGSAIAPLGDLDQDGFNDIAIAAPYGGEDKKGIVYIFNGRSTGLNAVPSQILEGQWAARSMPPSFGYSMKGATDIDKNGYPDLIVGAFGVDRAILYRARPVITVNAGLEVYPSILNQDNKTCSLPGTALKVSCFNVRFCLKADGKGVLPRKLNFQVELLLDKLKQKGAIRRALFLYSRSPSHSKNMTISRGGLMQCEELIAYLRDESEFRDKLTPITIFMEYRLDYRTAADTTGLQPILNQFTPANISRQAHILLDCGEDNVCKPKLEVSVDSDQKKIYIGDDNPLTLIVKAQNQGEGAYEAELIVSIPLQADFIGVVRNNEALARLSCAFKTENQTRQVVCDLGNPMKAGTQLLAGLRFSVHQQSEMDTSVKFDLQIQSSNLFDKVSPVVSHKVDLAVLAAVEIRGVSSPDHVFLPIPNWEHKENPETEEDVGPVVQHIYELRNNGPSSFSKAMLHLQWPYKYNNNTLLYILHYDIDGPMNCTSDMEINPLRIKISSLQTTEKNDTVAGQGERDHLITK
Chain of Integrin alpha-V/beta-3 (P06756 891-1048 limits assumed): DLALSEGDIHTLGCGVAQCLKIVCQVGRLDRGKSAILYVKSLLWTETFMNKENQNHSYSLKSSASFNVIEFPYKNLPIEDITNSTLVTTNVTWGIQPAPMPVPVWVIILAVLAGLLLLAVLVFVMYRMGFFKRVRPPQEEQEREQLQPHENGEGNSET

Row | Structure (SMILES) | IC50 [nM]
1 | CC(C)C[C@H]1C(=O)N[C@@H](CCCN=C(N)N)C(=O)NCC(=O)N[C@@H](CC(=O)O)C(=O)N[C@H](Cc2ccccc2)C(=O)N1C | 0.6
2 | NC(=O)[C@@H](CC(=O)O)NC(=O)NNC(=O)c1cccc(N=C(N)N)c1 | 7200
3 | N=C(N)Nc1cccc(C(=O)NNC(=O)N[C@@H](CC(=O)O)C(N)=O)c1 | 150
4 | N=C(N)Nc1cccc(C(=O)NNC(=O)NC(CC(=O)O)c2ccccc2)c1 (stereo unspecified) | 2.6
5 | CC(C)C[C@H]1C(=O)N[C@@H](CCCNC(=N)N)C(=O)NCC(=O)N[C@@H](CC(=O)O)C(=O)N[C@@H]2CCN1C2=O | 0.8
6 | CC(C)C[C@H]1NC(=O)[C@H](CCCN=C(N)N)NC(=O)CNC(=O)[C@@H](CC(=O)O)NC(=O)[C@@H](Cc2ccccc2)NC1=O | 40
